Experimental data as given in patent US9694016B2 (Novartis AG, priority 2013, dated 2017).
Read-outs that look alike come from different tables or passages of the source.

Biological target: b-Raf (V600E) (Homo sapiens (Human), UniProt P15056, V600E)
Details: read-out: b-Raf IC-50, AlphaScreen
[1] = 60 min pre-incubation, 3 hours reaction
[2] = 60 min pre-incubation, reaction 3 hours at room temperature

Sequence of b-Raf (V600E) (P15056 whole entry V600E): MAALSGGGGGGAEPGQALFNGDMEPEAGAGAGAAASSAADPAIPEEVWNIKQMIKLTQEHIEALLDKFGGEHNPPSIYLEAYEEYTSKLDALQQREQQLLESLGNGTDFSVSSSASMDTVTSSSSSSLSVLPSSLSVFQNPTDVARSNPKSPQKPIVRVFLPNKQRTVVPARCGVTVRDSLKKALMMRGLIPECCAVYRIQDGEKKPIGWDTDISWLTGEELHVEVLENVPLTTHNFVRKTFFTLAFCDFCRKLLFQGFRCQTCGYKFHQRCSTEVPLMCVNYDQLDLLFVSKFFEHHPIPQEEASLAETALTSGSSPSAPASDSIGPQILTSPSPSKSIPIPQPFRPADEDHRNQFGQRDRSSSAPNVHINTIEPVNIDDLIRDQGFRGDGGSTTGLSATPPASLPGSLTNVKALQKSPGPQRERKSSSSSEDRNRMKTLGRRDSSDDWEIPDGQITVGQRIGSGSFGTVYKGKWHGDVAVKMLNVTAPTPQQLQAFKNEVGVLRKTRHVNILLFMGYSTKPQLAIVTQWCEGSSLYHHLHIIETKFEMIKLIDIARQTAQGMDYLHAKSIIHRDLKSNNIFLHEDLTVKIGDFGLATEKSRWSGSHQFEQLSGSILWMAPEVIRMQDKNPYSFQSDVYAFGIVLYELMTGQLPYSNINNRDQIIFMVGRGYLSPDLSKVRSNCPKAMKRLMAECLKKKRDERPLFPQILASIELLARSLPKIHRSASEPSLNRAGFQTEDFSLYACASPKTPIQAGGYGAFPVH

Row | SMILES | IC50 (Table 2, 3 hours reaction) | IC50 [1] | other results
1 | Cc1ccc(C(=O)Nc2cccc(C(F)(F)F)c2)cc1-c1cc(N2CCOCC2)c(=O)n(C)c1 [Example 137, 4-methyl-3-(1-methyl-5-morpholino-6-oxo-1,6-dihydropyridin-3-yl)-N-(3-(trifluoromethyl)phenyl)benzamide] | 7.1 nM |  | 
2 | Cc1ncc(NC(=O)c2ccnc(C(C)(C)C#N)c2)cc1-c1cc(N2CCOCC2)c(OC2CCOCC2)nn1 [Example 633, 2-(2-cyanopropan-2-yl)-N-(6-methyl-5-(5-morpholino-6-((tetrahydro-2H-pyran-4-yl)oxy)pyridazin-3-yl)pyridin-3-yl)isonicotinamide] |  | 7.2 nM | 
3 | Cc1ccc(NC(=O)c2ccnc(C3(C#N)CC3)c2)cc1-c1cc(N2CCOCC2)nc(N2CC(C)(O)C2)c1 [Example 1111, 2-(1-cyanocyclopropyl)-N-(3-(2-(3-hydroxy-3-methylazetidin-1-yl)-6-morpholinopyridin-4-yl)-4-methylphenyl)isonicotinamide] |  |  | IC50 [2]: 2.09 nM
4 | COc1nnc(-c2cc(NC(=O)c3ccnc(C(C)(F)F)c3)cnc2C)cc1N1CCOCC1 [Example 603, 2-(1,1-difluoroethyl)-N-(5-(6-methoxy-5-morpholinopyridazin-3-yl)-6-methylpyridin-3-yl)isonicotinamide] |  | 2.7 nM | 
5 | Cc1ncc(NC(=O)c2ccnc(C(C)(C)C#N)c2)cc1-c1cc(N2CCOCC2)nc(N2CC(O)C2)n1 [Example 767, 2-(2-cyanopropan-2-yl)-N-(5-(2-(3-hydroxyazetidin-1-yl)-6-morpholinopyrimidin-4-yl)-6-methylpyridin-3-yl)isonicotinamide] |  | 47.4 nM | 
6 | Cc1ncc(NC(=O)c2cc(C(F)(F)F)nn2C)cc1-c1cc(N2CCOCC2)c(=O)n(C)c1 [Example 382, N-(1′,2-dimethyl-5′-morpholino-6′-oxo-1′,6′-dihydro-[3,3′-bipyridin]-5-yl)-1-methyl-3-(trifluoromethyl)-1H-pyrazole-5-carboxamide] | 900 nM |  | 
7 | Cc1ncc(NC(=O)c2ccnc(C(C)(C)C)c2)cc1-c1cc(N2CCOCC2)nc(N2CC(O)C2)c1 [Example 1089, 2-(tert-butyl)-N-(2′-(3-hydroxyazetidin-1-yl)-2-methyl-6′-morpholino-[3,4′-bipyridin]-5-yl)isonicotinamide] |  |  | IC50 [2]: 71.4 nM
8 | CCOc1ncc(-c2cc(NC(=O)c3ccnc(C(C)(C)F)c3)cnc2C)cc1N1CCOCC1 [Example 253, N-(6′-ethoxy-2-methyl-5′-morpholino-[3,3′-bipyridin]-5-yl)-2-(2-fluoropropan-2-yl)isonicotinamide] | 2.6 nM |  | 
9 | CCOc1ncc(-c2cc(NC(=O)c3cccc(C(F)(F)F)c3)ccc2C)nc1N1CCOCC1 [Example 538, N-(3-(5-ethoxy-6-morpholinopyrazin-2-yl)-4-methylphenyl)-3-(trifluoromethyl)benzamide] |  | 1.2 nM | 
10 | Cc1ccc(NC(=O)c2cccc(C(F)(F)F)c2)cc1-c1cc(N2CCOCC2)nc(-n2ccnc2)n1 [Example 33, N-(3-(2-(1H-imidazol-1-yl)-6-morpholinopyrimidin-4-yl)-4-methylphenyl)-3-(trifluoromethyl)benzamide] | 0.5 nM |  | 
11 | Cc1ncc(NC(=O)c2cnnc(C(C)(C)C#N)c2)cc1-c1cncc(N2CCOCC2)c1 [Example 296, 6-(2-cyanopropan-2-yl)-N-(2-methyl-5′-morpholino-[3,3′-bipyridin]-5-yl)pyridazine-4-carboxamide] | 24.7 nM |  | 
12 | Cc1ncc(NC(=O)c2cccc(C(F)(F)F)c2)cc1-c1cnc(N(C)C)c(N2CCOCC2)c1 [Example 307, N-(6′-(dimethylamino)-2-methyl-5′-morpholino-[3,3′-bipyridin]-5-yl)-3-(trifluoromethyl)benzamide] | 0.6 nM |  | 
13 | Cc1ccc(NC(=O)c2cnnc(C(F)(F)F)c2)cc1-c1cc(N2CCOCC2)c(=O)n(C)c1 [Example 361, N-(4-methyl-3-(1-methyl-5-morpholino-6-oxo-1,6-dihydropyridin-3-yl)phenyl)-6-(trifluoromethyl)pyridazine-4-carboxamide] | 2.8 nM |  | 
